Test results from patent publication US20060009493A1, “Indolinone hydrazides as c-Met inhibitors” (Sugen, Inc., priority 2003, published 2006).
Values joined by “and” are separate entries in the source; they are usually repeats but may differ in a detail not shown here. Identical values can stand only once. Counter-ions that a name gives are not always drawn.

Molecular target: T1, GST fusion protein containing the Met kinase domain (Homo sapiens, UniProt P08581)
T1 construct: Purified GST fusion protein containing the Met kinase domain, Sugen, Inc
T1 sequence (P08581 1078-1345 limits assumed): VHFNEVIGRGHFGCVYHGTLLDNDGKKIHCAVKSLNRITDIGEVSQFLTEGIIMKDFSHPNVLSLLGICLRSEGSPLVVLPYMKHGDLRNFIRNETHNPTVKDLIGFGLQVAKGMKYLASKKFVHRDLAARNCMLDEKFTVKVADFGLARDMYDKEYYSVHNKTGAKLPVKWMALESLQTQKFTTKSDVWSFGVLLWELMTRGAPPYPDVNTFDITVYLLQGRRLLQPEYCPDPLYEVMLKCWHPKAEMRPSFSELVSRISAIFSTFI
Assay: MET Transphosphorylation Assay (ELISA, poly(Glu,Tyr) 4:1 substrate)
Format: biochemical
Conditions: met transphosphorylation of poly(glutamic acid:tyrosine 4:1) substrate; two values in a cell separated by '/'
Protocol: MET Transphosphorylation Assay
This assay is used to measure phosphotyrosine levels on a poly(glutamic acid:tyrosine (4:1)) substrate as a means for identifying agonists/antagonists of met transphosphorylation of the substrate.
• 1. […] PBS, Gibco Catalog # 450-1300EB • 4. 50 mM HEPES • 5. […] Purified GST fusion protein containing the Met kinase domain, Sugen, Inc. • 7. TBST Buffer. • 8. 10% aqueous (MilliQue H2O) DMSO. • 9. […] 2× Kinase Dilution Buffer: for 100 ml, mix 10 mL 1M HEPES at pH 7.5 with 0.4 mL 5% BSA/PBS, 0.2 mL 0.1 M sodium orthovanadate and 1 mL 5M sodium chloride in 88.4 mL dH2O. • 11. 4×ATP Reaction Mixture: for 10 mL, mix 0.4 mL 1 M manganese chloride and 0.02 mL 0.1 M ATP in […] dH2O. • 12. 4× Negative Controls Mixture: for 10 mL, mix 0.4 mL 1 M manganese chloride in 9.6 mL dH2O.
13. […] 500 mM EDTA. • 15. Antibody Dilution Buffer: for 100 mL, mix 10 mL 5% BSA/PBS, 0.5 mL 5% Carnation Instant Milk® in PBS and 0.1 mL 0.1 M sodium orthovanadate in 88.4 mL TBST. • 16. Rabbit polyclonal antophosphotyrosine antibody, Sugen, Inc. • 17. Goat anti-rabbit horseradish peroxidase conjugated antibody, Biosource, Inc. • 18. ABTS Solution: for 1 L, mix 19.21 g citric acid, 35.49 g Na2HPO4 and 500 mg ABTS with sufficient dH2O to make 1 L. • 19. ABTS/H2O2: mix 15 mL ABST solution with 2 μL H2O2 five minutes before use. • 20. 0.2 M HCl Procedure: • 1. Coat ELISA plates with 2 μg Poly(Glu-Tyr) in 100 μL PBS, store overnight at 4° C. • 2. Block plate with 150 μL of 5% BSA/PBS for 60 min. • 3. Wash plate twice with PBS, once with 50 mM Hepes buffer pH 7.4. • 4. Add 50 μl of the diluted kinase to all wells. (Purified kinase is diluted with Kinase Dilution Buffer. Final concentration should be 10 ng/well.) • 5. Add 25 μL of the test compound (in 4% DMSO) or DMSO alone (4% in dH2O) for controls to plate. • 6. Incubate the kinase/compound mixture for 15 minutes. • 7. Add 25 μL of 40 mM MnCl2 to the negative control wells. • 8. Add 25 μL ATP/MnCl2 mixture to the all other wells (except the negative controls). Incubate for 5 min. • 9. Add 25 μL 500 mM EDTA to stop reaction. • 10. Wash plate 3× with TBST. • 11. Add 100 μL rabbit polyclonal anti-Ptyr diluted 1:10,000 in Antibody Dilution Buffer to each well. Incubate, with shaking, at room temperature for one hour. • 12. Wash plate 3× with TBST. • 13. […] Add 100 μL per well and incubate at room temperature, with shaking, for one hour. • 14. Wash plate 1× with PBS. • 15. Add 100 μl of ABTS/H2O2 solution to each well. • 16. If necessary, stop the development reaction with the addition of […] of 0.2M HCl per well. • 17.

IC50	SMILES
460 nM	CC(C(=O)N/N=C1\C(=O)Nc2ccc(C(=O)N3CC[C@H](N)C3)c(Cl)c21)c1ccc(F)cc1 (stereo partly drawn) [Example I-48, 2-(4-Fluoro-phenyl)-propionic acid [(3Z)-5-[(3S)-3-amino-pyrrolidine-1-carbonyl]-4-chloro-2-oxo-1,2-dihydro-indol-3-ylidene]-hydrazide trifluoroacetate]
630 nM	O=C(Cc1cc(O)[nH]n1)N/N=C1\C(=O)Nc2c(Cl)ccc(Cl)c21 [II-87, (5-Hydroxy-1H-pyrazol-3-yl)-acetic acid [(3Z)-4,7-dichloro-2-oxo-1,2-dihydro-indol-3-ylidene]-hydrazide]
> 20000 nM	COc1ccc(CC(=O)N/N=C2\C(=O)Nc3c(C)ccc(C)c32)cc1C#N [II-107, (3-Cyano-4-methoxy-phenyl)-acetic acid [(3Z)-4,7-dimethyl-2-oxo-1,2-dihydro-indol-3-ylidene]-hydrazide]
210 nM	O=C(Cc1ccc(F)cc1)N/N=C1\C(=O)Nc2ccc(Cl)c(Cl)c21 [II-52, (4-Fluoro-phenyl)-acetic acid [(3Z)-4,5-dichloro-2-oxo-1,2-dihydro-indol-3-ylidene]-hydrazide]
230 nM	CC(C(=O)N/N=C1\C(=O)Nc2ccc(C(=O)O)c(Cl)c21)c1ccc(F)cc1 (centres unmarked) [Example I-29, (3Z)-4-Chloro-3-{[2-(4-fluoro-phenyl)-propionyl]-hydrazono}-2-oxo-2,3-dihydro-1H-indole-5-carboxylic acid]
> 20000 nM	COc1ccc(CC(=O)N/N=C2\C(=O)Nc3c(Cl)ccc(Cl)c32)cc1C#N [II-106, (3-Cyano-4-methoxy-phenyl)-acetic acid [(3Z)-4,7-dichloro-2-oxo-1,2-dihydro-indol-3-ylidene]-hydrazide]
> 20000 nM	CCOc1ccc(CC(=O)N/N=C2\C(=O)Nc3ccccc32)cc1 [II-10, (4-Ethoxy-phenyl)-acetic acid [(3Z)-2-oxo-1,2-dihydro-indol-3-ylidene]-hydrazide]
> 20000 nM and 13600 nM	COC(C(=O)N/N=C1\C(=O)Nc2ccccc21)c1ccccc1 (centres unmarked) [Example I-5, Methoxy-phenyl-acetic acid [(3Z)-2-oxo-1,2-dihydro-indol-3-ylidene]-hydrazide]
3080 nM	O=C(Cc1cnc(=O)[nH]c1)N/N=C1\C(=O)Nc2c(Cl)ccc(Cl)c21 [II-96, (2-Oxo-1,2-dihydro-pyrimidin-5-yl)-acetic acid [(3Z)-4,7-dichloro-2-oxo-1,2-dihydro-indol-3-ylidene]-hydrazide]
65 nM	COc1cccc2c1NC(=O)/C2=N\NC(=O)Cc1ccc(O)cc1 [II-60, (4-Hydroxy-phenyl)-acetic acid [(3Z)-7-methoxy-2-oxo-1,2-dihydro-indol-3-ylidene]-hydrazide]
740 nM	CC(C(=O)N/N=C1\C(=O)Nc2ccc(Br)cc21)c1ccc2c(c1)OCO2 (centres unmarked) [Example I-53, 2-Benzo[1,3]dioxol-5-yl-propionic acid [(3Z)-5-bromo-2-oxo-1,2-dihydro-indol-3-ylidene]-hydrazide]
18500 nM	COc1ccc(CC(=O)N/N=C2\C(=O)Nc3ccc(Br)cc32)cc1OC [II-16, (3,4-Dimethoxy-phenyl)-acetic acid [(3Z)-5-bromo-2-oxo-1,2-dihydro-indol-3-ylidene)-hydrazide]
5990 nM	O=C(Cc1cc(=O)[nH]cn1)N/N=C1\C(=O)Nc2ccccc21 [II-88, (6-Oxo-1,6-dihydro-pyrimidin-4-yl)-acetic acid [(3Z)-2-oxo-1,2-dihydro-indol-3-ylidene]-hydrazide]
2080 nM	Cn1cc(CC(=O)N/N=C2\C(=O)Nc3ccc(C(=O)O)c(Cl)c32)ccc1=O [Example I-34, (3Z)-4-Chloro-3-{[2-(1-methyl-6-oxo-1,6-dihydro-pyridin-3-yl)-acetyl]-hydrazono}-2-oxo-2,3-dihydro-1H-indole-5-carboxylic acid]
> 20000 nM	O=C(Cc1ccc(O)c(O)c1)N/N=C1\C(=O)Nc2ccccc21 [II-64, (3,4-Dihydroxy-phenyl)-acetic acid [(3E)-2-oxo-1,2-dihydro-indol-3-ylidene]-hydrazide]
5840 nM	Cn1cc(CC(=O)N/N=C2\C(=O)Nc3cc(Cl)c(C(=O)NCCN4CCOCC4)cc32)ccc1=O [Example I-46, (3Z)-6-Chloro-3-{[2-(1-methyl-6-oxo-1,6-dihydro-pyridin-3-yl)-acetyl]-hydrazono}-2-oxo-2,3-dihydro-1H-indole-5-carboxylic acid (2-morpholin-4-yl-ethyl)-amide]
8 nM	O=C(Cc1ccc(O)cc1)N/N=C1\C(=O)Nc2cccc(Cl)c21 [II-39, (4-Hydroxy-phenyl)-acetic acid [(3Z)-4-chloro-2-oxo-1,2-dihydro-indol-3-ylidene]-hydrazide]
47 nM	COc1cc(Cl)c2c(c1Cl)/C(=N/NC(=O)C(C)c1ccc(O)cc1)C(=O)N2 (centres unmarked) [II-113, 2-(4-Hydroxy-phenyl)-propionic acid [(3Z)4,7-dichloro-5-methoxy-2-oxo-1,2-dihydro-indol-3-ylidene)-hydrazide]
32 nM	COc1cc(Cl)c2c(c1Cl)/C(=N/NC(=O)Cc1ccc(O)cc1)C(=O)N2 [II-95, (4-Hydroxy-phenyl)-acetic acid [(3Z)-4,7-dichloro-5-methoxy-2-oxo-1,2-dihydro-indol-3-ylidene]-hydrazide]
< 9.1 nM and 22 nM	CS(=O)(=O)c1ccc2c(c1)/C(=N/NC(=O)Cc1ccc(O)cc1)C(=O)N2 [Example I-9, (4-Hydroxy-phenyl)-acetic acid [(3Z)-5-methanesulfonyl-2-oxo-1,2-dihydro-indol-3-ylidene]-hydrazide]
150 nM	CCC(C(=O)N/N=C1\C(=O)Nc2c(Cl)ccc(Cl)c21)c1ccc(OC)cc1 (centres unmarked) [II-79, 2-(4-Methoxy-phenyl)-butyric acid [(3Z)-4,7-dichloro-2-oxo-1,2-dihydro-indol-3-ylidene)-hydrazide]
13700 nM	O=C(Cc1cccc(Cl)c1)N/N=C1\C(=O)Nc2ccc(Br)cc21 [II-15, (3-Chloro-phenyl)-acetic acid [(3Z)-5-bromo-2-oxo-1,2-dihydro-indol-3-ylidene]-hydrazide]
> 20000 nM	CC(C)(C(=O)N/N=C1\C(=O)Nc2ccc(C(=O)O)c(Cl)c21)c1ccc(Cl)cc1 [II-92, (3Z)-4-Chloro-3-{[2-(4-chloro-phenyl)-2-methyl-propionyl]-hydrazono}-2-oxo-2,3-dihydro-1H-indole-5-carboxylic acid]
> 20000 nM	COc1cc(CC(=O)N/N=C2\C(=O)Nc3c(Cl)ccc(Cl)c32)cc(OC)c1O [II-100, (4-Hydroxy-3,5-dimethoxy-phenyl)-acetic acid [(3Z)-4,7-dichloro-2-oxo-1,2-dihydro-indol-3-ylidene)-hydrazide]
> 20000 nM	O=C(Cc1ccc(Br)cc1)N/N=C1\C(=O)Nc2ccccc21 [II-34, (4-Bromo-phenyl)-acetic acid [(3Z)-2-oxo-1,2-dihydro-indol-3-ylidene]-hydrazide]
10400 nM	O=C(Cc1ccc(OCCN2CCCC2)cc1)N/N=C1\C(=O)Nc2ccccc21 [Example I-1]
170 nM	CC(C)C(C(=O)N/N=C1\C(=O)Nc2c(Cl)ccc(Cl)c21)c1ccc(O)cc1 (centres unmarked) [II-69, 2-(4-Hydroxy-phenyl)-3-methyl-butyric acid [(3Z)-4,7-dichloro-2-oxo-1,2-dihydro-indol-3-ylidene)-hydrazide]
45 nM	COc1ccc2c(c1Cl)/C(=N/NC(=O)C(C)c1ccc(O)cc1)C(=O)N2 (centres unmarked) [II-99, 2-(4-Hydroxy-phenyl)-propionic acid [(3Z)-4-chloro-5-methoxy-2-oxo-1,2-dihydro-indol-3-ylidene)-hydrazide]
610 nM	O=C(Cc1ccc(O)c([N+](=O)[O-])c1)N/N=C1\C(=O)Nc2ccccc21 [II-46, (4-Hydroxy-3-nitro-phenyl)-acetic acid [(3Z)-2-oxo-1,2-dihydro-indol-3-ylidene]-hydrazide]
